The source of these data is patent US20220144853A1, “IMIDAZOLINE DERIVATIVES AS CXCR4 MODULATORS” (Université de Paris, priority 2019, published 2022).

Structures are written as SMILES. Where a name gives a salt, the structure may show the parent alone.

A word on the IC50: it is the concentration at which inhibition is half-maximal. As usually defined, the melting point is the temperature of the solid-liquid transition.

For one data set, the system named is IFN production by activated PBMCs. The experiment in a line: IFN production by R848-activated PBMCs from healthy donors, twINNE reporter cell line. It counts as cell-based, human. Particulars: Homo sapiens, PBMC, means of two results over 2 healthy donors, R848 5 μg/mL, IT1t: mean over all experiments, read-out: IC50 of anti-inflammatory activity (IFN production). How it is done: 2) The blood from healthy donors was also obtained from “Etablissement Français du Sang” (convention #19/EFS/029), Paris, France.
In vitro experiments were performed using human peripheral blood mononuclear cells (PBMCs) isolated by density centrifugation from peripheral blood leukocyte separation medium, lymphoprep (Stemcell Technologies).
PBMCs were cultured in RPMI 1640 (Sigma-Aldrich, MO, USA) containing 10% heat-inactivated fetal bovine serum (Sigma-Aldrich, MO, USA) at 37° C./5% CO2.
2) The PBMCs used herein were prepared as described in part A “immune cells preparation”, section 2) above. PBMCs were seeded at 4.10^6/mL. […] Cells were then stimulated with the TLR7/8 agonist resiquimod—R848 (Sigma-Aldrich, MO, USA) at 5 μg/mL.
2) To quantify the secretion of functional IFN, a biological assay based on a stable cell line where luciferase reporter gene is controlled by five Interferon-Stimulated Response Elements (twINNE cell line) was used. It is important to note that the twINNE cell line is the same as the above mentioned STING-37 cell line but with constitutively expressed nanoluciferase. First, supernatants of R848-stimulated PBMCs (see part B, section 2) above) were harvested after 24 h of stimulation and frozen at −20° C. for storage. Then, supernatants were dispensed in culture wells of a 96-well plate containing 35.103 twINNE cells per well in Dulbecco's Modified Eagle's Medium supplemented with 10% Foetal Bovine Serum, 100 U/mL Penicillin and 100 μg/mL Streptomycin (1% Pen-Strep) and 1 mM glutamine (Sigma-Aldrich, MO, USA) at 37° C./5% […]. After 24 h of culture, luciferase activity was determined by adding 60 μL of Bright-Go reagents (Promega, Wisconsin, USA) to culture wells and measuring bioluminescence with EnSpire Multimode Plate Reader (PerkinElmer, Massachusetts, USA). When stated, for IC50 calculation, dose-response curves fitted using the nonlin fit (variable slope) analysis in GraphPad Prism software (GraphPad Software, California, USA).
On to `C1=C(CSC2=NCC(Cc3ccccc3)N2)N2CC(Cc3ccccc3)N=C2S1` (stereo not drawn) [Example 60, 6-benzyl-3-(((5-benzyl-4,5-dihydro-1H-imidazol-2-yl)thio)methyl)-5,6-dihydroimidazo[2,1-b]thiazole dihydrochloride], for which the IC50 is at most 10 µM.
The same measure, in the same setting: the same measure for `C1=C(CSC2=N[C@@H]3CCCC[C@H]3N2)N2CC(Cc3ccccc3)N=C2S1` (stereo partly drawn) [Example 61, 6-benzyl-3-((((3aR,7aR)-3a,4,5,6,7,7a-hexahydro-1H-benzo[d]imidazol-2-yl)thio)methyl)-5,6-dihydroimidazo[2,1-b]thiazole dihydrochloride]: at most 10 µM; for `c1ccc(CC2CN=C(SCCc3cccnc3)N2)cc1` (stereo not drawn) [Example 65, 3-(2-((5-benzyl-4,5-dihydro-1H-imidazol-2-yl)thio)ethyl)pyridine dihydrochloride]: at least 31 µM.
The same measure, in the same setting: in the case of `CC1(C)CN2C(=N1)SC(I)=C2CSC1=NCC(C)(C)N1` [Example 66, 3-(((5,5-dimethyl-4,5-dihydro-1H-imidazol-2-yl)thio)methyl)-2-iodo-6,6-dimethyl-5,6-dihydroimidazo[2,1-b]thiazole dihydrochloride] it was at most 10 µM; in that of `c1ccc(CC2CN=C(SCCCc3ccc4c(n3)NCCC4)N2)cc1` (stereo not drawn) [Example 68, 7-(3-((5-benzyl-4,5-dihydro-1H-imidazol-2-yl)thio)propyl)-1,2,3,4-tetrahydro-1,8-naphthyridine dihydrochloride], 10 to 31 µM.
On the same count and under the same terms, the same measure for `CC1(C)CN2C(=N1)SCC2SC1=NCC(C)(C)N1` (stereo not drawn) [Example 70, 3-((5,5-dimethyl-4,5-dihydro-1H-imidazol-2-yl)thio)-6,6-dimethyl-2,3,5,6-tetrahydroimidazo[2,1-b]thiazole dihydrochloride]: at least 31 µM.

System in a further data set: not given
Test: not given
Conditions: not given
Regarding `CC1(C)CN2C(CSC3=NCC(C)(C)N3)=CSC2=N1` (as salt: hydrochloride) [Example 2, 3-(((5,5-dimethyl-4,5-dihydro-1H-imidazol-2-yl)thio)methyl)-6,6-dimethyl-5,6-dihydroimidazo[2,1-b]thiazole dihydrochloride], the melting point is above 250 °C.
`CC1(C)CN2C(CSC3=N[C@@H]4CCCC[C@H]4N3)=CSC2=N1` (as salt: hydrochloride) [Example 3, 3-((((3aR,7aR)-3a,4,5,6,7a-hexahydro-1H-benzo[d]imidazol-2-yl)thio)methyl)-6,6-dimethyl-5,6-dihydroimidazo[2,1-b]thiazole dihydrochloride] returned a melting point of 65 to 75 °C.
On the same count and under the same terms, the same measure for `CC1(C)CN2C(CSC3=N[C@H]4CCCC[C@@H]4N3)=CSC2=N1` (as salt: hydrochloride) [Example 4, 3-((((3aS,7aS)-3a,4,5,6,7,7a-hexahydro-1H-benzo[d]imidazol-2-yl)thio)methyl)-6,6-dimethyl-5,6-dihydroimidazo[2,1-b]thiazole dihydrochloride]: 167 to 175 °C; for `CC1(C)CN2C(CSC3=N[C@@H]4CCCC[C@@H]4N3)=CSC2=N1` (as salt: hydrochloride) [Example 5, 3-((((3R,7aS)-3a,4,5,6,7,7a-hexahydro-1H-benzo[d]imidazol-2-yl)thio)methyl)-6,6-dimethyl-5,6-dihydroimidazo[2,1-b]thiazole dihydrochloride]: above 250 °C; for `CC1(C)CN2C(CSC3=NCCN3)=CSC2=N1` (as salt: hydrochloride) [Example 8, 3-(((4,5-dihydro-1H-imidazol-2-yl)thio)methyl)-6,6-dimethyl-5,6-dihydroimidazo[2,1-b]thiazole dihydrochloride]: 140 to 144 °C.
On the same count and under the same terms, in the case of `CN1CCN=C1SCC1=CSC2=NC(C)(C)CN12` (as salt: hydrochloride) [Example 11, 6,6-dimethyl-3-(((1-methyl-4,5-dihydro-1H-imidazol-2-yl)thio)methyl)-5,6-dihydroimidazo[2,1-b]thiazole dihydrochloride] it was 128 to 132 °C.
